Reference: PubChem BioAssay AID179 (DTP/NCI, 2004)
Activity calls are given as the source filed them.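 How the source made its calls: active means compounds giving half or more protection of infected cells from virus-caused growth loss, again on retest; inactive means the rest.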

Tested on: CEM cells HIV-1 protection, formazan growth assay
Experiment: NCI AIDS Antiviral Assay
Conditions: for IC50: measured here: growth of uninfected CEM cells
In short: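 Category rules: moderately active means at least 50% protection on retest, and confirmed active means 100% protection reproducibly. The underlying data came from a formazan growth assay in HIV-1-infected CEM cells.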

Structure (SMILES) | EC50 [µM] | IC50 [µM] | outcome
OC1CCC(O)[C@H]2[C@@H]1[C@@H]1S[C@H]2c2ccccc21 (stereo partly drawn) | > 200 | > 200 | –
CC1CC(c2ccc([N+](=O)[O-])cc2)=Nc2ccccc2S1=O (stereo not drawn) | > 12 | > 12 | –
CC1(C)CNC[C@@]2(C)OCCN(C(=O)OC(C)(C)C)CCO[C@]3(C)CNCC(C)(C)NC(=O)[C@@](C)(CNCC(C)(C)NC3=O)OCCN(C(=O)OC(C)(C)C)CCO[C@](C)(CNCC(C)(C)NC2=O)C(=O)N1 | – | – | inactive
CCCCc1ccc(C(N)=O)nc1 | > 200 | > 200 | –
CCC[CH2][Sn]([CH2]CCC)([O]c1cccc2cccnc12)[O]c1cccc2cccnc12 | – | – | inactive
Clc1cccc(N=C/C=C/Nc2cccc(Cl)c2)c1 | > 200 | 30.9 | –
O=S(=O)(SCCO)c1ccccc1 | > 813 | 57.5 | –
CC(C)(C)OC(=O)NCC(CNC(=O)OC(C)(C)C)C(N)=O | > 407 | > 407 | –
C[C@@H]1O[C@]2(O)[C@@H]3CCCN3S(=O)(=O)CCN2C1=O | > 912 | > 912 | –
FC(F)(F)c1cccc(C2SCc3nc4ccccc4n32)c1 (stereo not drawn) | – | – | inactive
CCC/C(=N\NC(=O)c1cc2ccccc2cc1O)C(CC)C(=O)CCC(=O)N(Cc1ccccc1)Cc1ccccc1 (stereo not drawn) | > 44.7 | > 44.7 | –
O=C1CC(c2ccco2)NC(=O)N1CCCl (stereo not drawn) | > 200 | > 200 | –
O=CC1CCC=CC1NC(=O)OCc1ccccc1 (stereo not drawn) | – | – | inactive
FC(F)(F)c1ccc2c3c(c4c(c2n1)OCN(Cc1ccc(Cl)cc1Cl)C4)CN(Cc1ccc(Cl)cc1Cl)CO3 | 0.282 | 4.37 | –
O=C1[C@@H]2C(c3ccccc3F)=NO[C@@H]2C(=O)N1c1ccc(Cc2ccc(N3C(=O)[C@H]4C(c5ccccc5F)=NO[C@H]4C3=O)cc2)cc1 | > 8.32 | > 8.32 | –
O=[N+]([O-])c1ccc2c(c1)N([O-])C1(CCCCC1)[N+]2=O | > 200 | 3.98 | –
Cc1ccc(NC(=O)NC(=O)CCl)cc1 | > 31.6 | 7.76 | –
CCOC(=O)C1(Cc2ccc(C)cc2)Cc2ccc(C)cc2C1=O (stereo not drawn) | > 200 | 4.68 | –
COc1ccc2c(c1)CC[C@@H]1[C@@H]2CC[C@]2(C)[C@H](O)[C@H](O)C[C@@H]12 | > 200 | 32.4 | –
COc1cc2c3c(c1)nnn3C(=O)C(C)S2 (stereo not drawn) | – | – | inactive
O=C(OCCC[P+](c1ccccc1)(c1ccccc1)c1ccccc1)c1ccccc1 | > 200 | 3.39 | –

Structure (SMILES) | EC50 [µM] | IC50 [µM] | outcome
CCCN(CCC)CCCOC(=O)c1ccc2oc3ccc(C(=O)OCCCN(CCC)CCC)cc3c2c1 | > 112 | 6.61 | –
CC(=O)C(=Cc1ccc(F)cc1)C(C)=O | > 871 | 38 | –
CC(NC(=O)C(N)CC(=O)O)NC(=O)N(C)C(C)(C)C (stereo not drawn) | > 200 | > 200 | –
CC(/C=C/c1ccccc1)=N\N=C(C)\C=C\c1ccccc1 | > 13.2 | > 13.2 | –
O=c1[nH]c(Nc2cc(Cl)cc(Cl)c2)nc2nc[nH]c12 | > 200 | > 200 | –
CCOC(=O)CN1C(=O)S/C(=C2\C(=O)N(C)c3ccc(Br)cc32)C1=O | > 200 | > 200 | –
COC1CC2C=C(C)/C=C/C=C/C(=O)NC(c3ccccc3)C/C=C/CCC(O)CC(=O)C2=C1O (stereo not drawn) | > 20.9 | 0.562 | –
CCOC(=O)C1=CC(C)(C(=O)OCC)Nc2c(nc(N)[nH]c2=O)N1 (stereo not drawn) | 138 | > 200 | –
Nc1nc2c(ncn2COCCO)c(=O)[nH]1 | > 794 | > 794 | –
OCCCCCCOc1ccc(-c2cc(-c3ccccn3)nc(-c3ccccn3)c2)cc1 | > 12.3 | 1.91 | –
Cc1c(C(=O)Nc2ccccc2)nnn1-c1ccnc2cc(C(F)(F)F)ccc12 | > 200 | > 200 | –
CCC(=O)O[C@@H]1C2C(OC(C)=O)C34COC(C)([C@@H]3C3C(C[C@]3(C)OC(C)=O)[C@@H](OC(=O)c3ccccc3)C4=O)[C@H](OC(C)=O)[C@@]2(OC(C)=O)C[C@@H]1C (stereo partly drawn) | > 10 | > 10 | –
CCCC[P+](c1ccccc1)(c1ccccc1)c1ccccc1 | > 200 | 2.57 | –
Cc1nc(=O)n2c(c1C(=O)Nc1ccc(Cl)cc1)NCC2 | – | – | inactive
S=C(Nc1cccc(Cl)c1)Nc1ccccn1 | > 200 | > 200 | –
CN(C)c1ccc(/C=c2\[nH]c(=O)/c(=C\c3ccc(N(C)C)cc3)[nH]c2=O)cc1 | > 50.1 | > 50.1 | –
COc1nc2c(nc(N)n2C2OC(CO)C(O)C(O)C2O)c(=O)[nH]1 (stereo not drawn) | – | – | inactive
O=[N+]([O-])c1ccc2nc(Nc3ccccc3)c(Nc3ccccc3)nc2c1 | – | – | inactive
Cc1nc2ccc3c(ccc4nc(C)c(N=Nc5ccc(C(=N)N)cc5)c(O)c43)c2c(O)c1N=Nc1ccc(C(=N)N)cc1 | > 200 | 11 | –
CCC(=O)N/S(=N/S(=O)(=O)c1ccccc1)C(Cl)(Cl)Cl (stereo not drawn) | > 200 | > 200 | –
COc1cc2c(oc(=O)c3c4oc([Si](C)(C)C)cc4cc(OC)c23)c2cccc(OCc3ccccc3)c12 | > 0.501 | > 0.501 | –

Structure (SMILES) | EC50 [µM] | IC50 [µM] | outcome
Clc1cc2nncc(N3CC3)c2cc1Cl | – | – | inactive
CN(C)c1cc[n+](-c2nc(/N=C(\[O-])C(F)(F)F)nc3c2ncn3C2CC(O)C(CO)O2)cc1 (stereo not drawn) | > 200 | > 200 | –
CCOC(=O)[C@H](C)OC(=O)[C@@](C)(NC(=O)c1ccccc1C(=O)OC)[C@@H]1NC=C(C(=O)OC)CS1 | > 200 | 53.7 | –
O=[N+]([O-])c1cccc2nc3ccccc3c(NCCC[N+]3([O-])CCOCC3)c12 | > 2 | 0.105 | –
O=C1/C(=C\Oc2ccc(F)cc2)N2CCC1CC2 | > 200 | 102 | –
CC1SC2=NC3=C(c4ccccc4C3=O)C(c3ccccc3Cl)N2C1=O (stereo not drawn) | > 35.5 | > 35.5 | –
CCOC(=O)c1c(NC(=O)c2ccccc2)sc2c1CCCC2 | > 151 | > 151 | –
CCOC(=O)CC(C)C1(C=O)CCCCC1=O (stereo not drawn) | > 759 | > 759 | –
CC(=O)OC1OC2C(NC(=O)OC(C)(C)C)C1CC2(OCc1ccccc1)OCc1ccccc1 (stereo not drawn) | > 28.2 | > 28.2 | –
OCCOc1ccc(-c2cc(-c3ccccn3)nc(-c3ccccn3)c2)cc1 | > 3.72 | 0.646 | –
CC(=O)C(=Cc1cccc(F)c1)C(C)=O | > 126 | 64.6 | –
COc1cccc(OC)c1NC1=NCCO1 | > 200 | 120 | –
CC(C)NC(=O)NCCc1c[nH]c2ccccc12 | > 200 | > 200 | –
C#CC1(O)CCC2[C@@H]3CCc4cc(Oc5nc(F)nc(-c6c(C)c(C(=O)OCC)n7ccccc67)n5)ccc4C3CC[C@@]21C (stereo partly drawn) | > 100 | > 100 | –
Cc1cc(C)c(C#N)c(SC(=S)NC(=O)c2ccccc2)n1 | 158 | > 200 | –
C[C@]12CC[C@H]3[C@@H](CC=C4C[C@@H](O)CC[C@@]43C)[C@@H]1CC[C@@H]2c1cnc[nH]1 | > 200 | 117 | –
CCCC(C)C(=Nc1ccc(Cl)c(Cl)c1)N(C)C (stereo not drawn) | > 200 | 28.2 | –
CC(C)N=C(NC#N)NS(=O)(=O)c1cnccc1NC1CCCCCCC1 | > 200 | > 200 | –
O=C(O)c1ccc(C2C3C=CC(C3)C2[N+](=O)[O-])cc1 (stereo not drawn) | > 347 | > 347 | –
